These results are taken from patent US8536332B2, “Modulating signal transduction pathways with substituted pyridol [2,3-b] pyrazines” (Aeterna Zentaris GmbH, priority 2007, dated 2013).

In one series the test system is p110alpha H107R. Particulars: cited from earlier work.
A further series deals with MDA-MB468. The experiment in a line: XTT assay, anti-proliferative activity, MDA-MB468. In kind it is cell-based. Particulars: Homo sapiens, MDA-MB-468; 45 h incubation. The gist of the method:
(§1)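 Hct116 (5000 cells/well) and MDA-MB468 (10000 cells/well) seeded overnight, then incubated with compound 45 h at 37 °C, 5% CO2. XTT (325 μg/ml) plus PMS (2.5 μg/ml) added for 3 h, formazan read at 490 nm; % inhibition versus no-compound and no-cell controls, EC50 fitted.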

The test system of another series is Phospho-Akt (Ser 473). As to the kind of experiment: Cellular substrate phosphorylation (Western blotting), PI3K →pAkt. Format: cell-based, human. On the procedure: (§2) This method enables a statement of whether the kinase modulator investigated achieves the desired effect in a cellular context too, i.e., in this case, a substrate protein downstream of the target kinase is examined for its phosphorylation status. To this end, the cells incubated with substance are lysed and the overall protein is separated on a reducing polyacrylamide gel. Subsequently, the proteins are transferred to a PVDF membrane by Western blotting and the substrate bands sought are made visible with specific antibodies and a suitable detection method. The substrate proteins down-stream of the target kinases are detected simultaneously with an anti-phospho antibody which is specific in each case and a total antibody which recognizes the substrate total protein. The duplex technology of the ODYSSEY imager (LiCOR) enables this simultaneous measurement. The intensity of the total substrate bands is employed to normalize and quantify the phosphorylation inhibition or activation.
(§3) Suitable tumor cell lines (e.g. BxPC3, Hct116 or MDA MB468) were seeded into 6-well microtitre plates in a defined cell count (e.g. 350 000 cells/well for BxPC3 and Hct116) in the particular standard complete media and then incubated overnight at 37° C., 5% CO2 and 95% air humidity. Afterwards, the cells were incubated for 24 h under serum-reduced conditions, i.e. in the particular medium except at only 0.25% serum. The test substances were made up as stock solutions (10 mM) in DMSO and incubated with the cells at final concentrations of 5, 15.8 and 50 μM for 5 h. This was followed by cell lysis in 25 mM Tris, 150 mM NaCl, 10 mM sodium pyrophosphate, 2 mM EGTA, 25 mM beta-glycerophosphate, 25 mM NaF, 10% glycerol, 0.75% NP-40, 100 μM NaVO4 buffer. After protein quantification using the BCA (bicinchonic acid protein assay kit, Sigma) assay, amounts of protein of about 20 μg per track were separated on a Lämmli polyacrylamide gel and then transferred onto a PVDF membrane (Millipore) by semi-dry Western blotting at 0.8 mA/cm^2 for 1 h. This was followed by prehybridization of the membrane for 1 hour in I-block reagent (Applied Biosystems) and overnight simultaneous incubation with the specific antibodies. […] After the membrane had been washed, the secondary antibodies were incubated with anti-rabbit IR Dye 800 (#611-732-127, Rockland) for the phospho antibodies and anti-goat Alexa Fluor 680 (#A-21081, […]) for the total protein antibodies. After incubation for 30 min at room temperature in the dark, the hybridization of the detection antibody was detected on the membrane by scanning in an ODYSSEY imager (LiCOR).
(In general: A western blot detects proteins with antibodies after separation by electrophoresis.)

The next series deals with T1, PI3Kalpha (Homo sapiens, UniProt P42336).
T1 construct: purchased Upstate #14-602
T1 sequence (P42336 whole entry): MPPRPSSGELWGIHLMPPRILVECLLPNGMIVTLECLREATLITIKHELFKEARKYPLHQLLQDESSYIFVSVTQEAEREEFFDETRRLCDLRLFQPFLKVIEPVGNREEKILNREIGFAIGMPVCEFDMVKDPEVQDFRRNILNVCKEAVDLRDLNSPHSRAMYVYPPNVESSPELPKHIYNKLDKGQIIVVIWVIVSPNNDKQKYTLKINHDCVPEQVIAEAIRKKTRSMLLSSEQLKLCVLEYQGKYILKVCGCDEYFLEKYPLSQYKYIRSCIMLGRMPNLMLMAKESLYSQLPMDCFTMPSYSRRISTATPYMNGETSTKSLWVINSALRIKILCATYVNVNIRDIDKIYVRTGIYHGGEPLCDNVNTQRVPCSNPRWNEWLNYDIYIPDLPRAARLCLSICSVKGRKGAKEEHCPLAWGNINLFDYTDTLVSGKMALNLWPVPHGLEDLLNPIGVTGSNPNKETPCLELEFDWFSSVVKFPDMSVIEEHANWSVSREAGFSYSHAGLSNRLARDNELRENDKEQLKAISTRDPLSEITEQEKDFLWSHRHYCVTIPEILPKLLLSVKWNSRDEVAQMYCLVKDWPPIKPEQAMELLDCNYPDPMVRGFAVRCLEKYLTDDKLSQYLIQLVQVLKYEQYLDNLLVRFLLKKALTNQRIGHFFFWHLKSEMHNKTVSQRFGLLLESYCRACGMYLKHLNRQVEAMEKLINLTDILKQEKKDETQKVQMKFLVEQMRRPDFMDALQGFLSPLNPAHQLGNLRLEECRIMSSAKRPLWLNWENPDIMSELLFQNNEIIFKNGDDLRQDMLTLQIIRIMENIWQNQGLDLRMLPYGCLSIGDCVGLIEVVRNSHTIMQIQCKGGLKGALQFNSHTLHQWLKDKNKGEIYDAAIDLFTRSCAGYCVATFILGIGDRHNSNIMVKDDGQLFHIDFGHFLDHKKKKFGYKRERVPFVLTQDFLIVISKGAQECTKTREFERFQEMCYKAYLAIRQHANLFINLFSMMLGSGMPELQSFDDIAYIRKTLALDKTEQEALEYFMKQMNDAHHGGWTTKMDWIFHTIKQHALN
T1 sequence (P27986 whole entry partner): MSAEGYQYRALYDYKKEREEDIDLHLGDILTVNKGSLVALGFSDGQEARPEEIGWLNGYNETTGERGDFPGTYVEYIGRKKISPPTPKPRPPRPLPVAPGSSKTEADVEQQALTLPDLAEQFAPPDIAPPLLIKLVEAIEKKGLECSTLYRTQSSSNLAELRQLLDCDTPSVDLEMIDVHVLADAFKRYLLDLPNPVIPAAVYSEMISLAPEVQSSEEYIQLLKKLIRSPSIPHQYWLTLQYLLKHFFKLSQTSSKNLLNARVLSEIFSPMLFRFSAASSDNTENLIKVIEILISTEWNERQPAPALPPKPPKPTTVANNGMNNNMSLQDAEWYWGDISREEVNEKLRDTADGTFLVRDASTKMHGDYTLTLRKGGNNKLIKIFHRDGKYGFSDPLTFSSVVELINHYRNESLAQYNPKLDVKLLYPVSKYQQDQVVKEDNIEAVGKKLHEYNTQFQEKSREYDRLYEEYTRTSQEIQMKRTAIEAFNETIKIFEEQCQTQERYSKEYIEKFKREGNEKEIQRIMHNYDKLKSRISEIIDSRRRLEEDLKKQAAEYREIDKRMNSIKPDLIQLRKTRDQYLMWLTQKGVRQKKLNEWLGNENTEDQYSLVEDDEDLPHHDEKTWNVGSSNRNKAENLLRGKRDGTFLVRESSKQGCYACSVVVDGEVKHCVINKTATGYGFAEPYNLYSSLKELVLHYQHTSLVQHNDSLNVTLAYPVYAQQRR
As to the kind of experiment: Cell-free kinase assay PI3K-ALPHA. Format: biochemical. How it is done: (§4) The inhibitory effect of the compounds of the invention was tested on various human serine/threonine kinases, tyrosine kinases and lipid kinases in enzymatic assays. Recombinant human kinases, for example PI3Kalpha, -beta, -gamma, -delta, Erk2, p38alpha, p38gamma, Jnk1, Jnk2 and others were used, in some cases as full-length kinases, in some cases as truncated fragments—but at least consisting of the functional kinase domains. The commercial kinase proteins (Proqinase, Upstate) were used as recombinant fusion proteins with GST (glutathione S-transferase) tag or His tag. Depending on the substrate type, the different kinase reactions were quantified by suitable ALPHA™ beads (PerkinElmer).
(§5) The kinase assays for PI3K and Erk are described in detail and selected test results are cited below. […] Subsequently, the kinase reaction was stopped by adding the ALPHA bead mix (10 μg/ml, #6760603/PerkinElmer), preincubated with 1 nM GST:Grp1 fusion protein (Upstate) and […] (#C-39B6/Echelon) in 50 mM Hepes, 50 mM NaCl, 50 mM EDTA and 0.1% BSA, and left to stand overnight. • b) Erk2-ALPHA: The test substance, 0.625 ng of Erk2 (#14-173, Upstate), 10 μM ATP and 15 nM biotinylated MBP (myelin basic protein) substrate were incubated on a 384-well Optiplate (Perkin Elmer) in a volume of 15 μl for 1 h in 25 mM Tris, 10 mM MgCl2, 0.1% Tween-20, 100 μM NaVO4, 2 mM DTT at pH 7.5. The kinase reaction was stopped by adding 10 μl of the ALPHA bead mix (10 μg/ml, #6760617/PerkinElmer), pre-incubated with anti-phospho MBP antibody (320 pM, #05-429/Upstate), in 25 mM Tris, 200 mM NaCl, 100 mM EDTA and 0.3% BSA, and left to stand overnight.
(§6) The luminiscence was detected the next morning in a Fusion™ alpha instrument (Perkin Elmer).
(§7) The calculation of % inhibition values per substance concentration was done by means of the following formula from the raw data determined in the Fusion™ alpha:
(§8) The controls were determined 8 fold and the substance samples 2 fold. 0% control contained neither any ATP nor any substrate. The 100% control contained no test substance. The IC50 values were determined with GraphPadPrism.

The target in a further series is p38alpha (Homo sapiens, UniProt Q16539). The experiment in a line: Cell-free kinase assay (ALPHA technology) p38alpha. In kind it is biochemical. Particulars: 10 μM ATP. On the procedure: as §4, §5, §6, §7, §8
Chain of p38alpha (Q16539 whole entry): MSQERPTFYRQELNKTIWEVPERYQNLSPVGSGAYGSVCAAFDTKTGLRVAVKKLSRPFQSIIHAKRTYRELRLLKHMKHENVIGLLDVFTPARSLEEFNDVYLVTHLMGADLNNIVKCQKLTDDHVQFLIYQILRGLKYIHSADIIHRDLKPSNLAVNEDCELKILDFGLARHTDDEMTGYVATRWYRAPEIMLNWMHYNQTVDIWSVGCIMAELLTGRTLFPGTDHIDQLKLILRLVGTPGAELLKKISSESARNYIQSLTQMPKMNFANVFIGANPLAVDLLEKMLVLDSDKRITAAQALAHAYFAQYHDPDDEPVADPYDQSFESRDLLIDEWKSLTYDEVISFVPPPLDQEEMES
The next series concerns Phospho-p90RSK (S380). As to the kind of experiment: Cellular substrate phosphorylation (Western blotting), Erk →pRsk. In kind it is cell-based, human. On the procedure: as §2, §3
For another series, the target named is T2, Erk2 (Mus musculus, UniProt P63085).
T2 construct: purchased Upstate #14-173
T2 sequence (P63085 whole entry): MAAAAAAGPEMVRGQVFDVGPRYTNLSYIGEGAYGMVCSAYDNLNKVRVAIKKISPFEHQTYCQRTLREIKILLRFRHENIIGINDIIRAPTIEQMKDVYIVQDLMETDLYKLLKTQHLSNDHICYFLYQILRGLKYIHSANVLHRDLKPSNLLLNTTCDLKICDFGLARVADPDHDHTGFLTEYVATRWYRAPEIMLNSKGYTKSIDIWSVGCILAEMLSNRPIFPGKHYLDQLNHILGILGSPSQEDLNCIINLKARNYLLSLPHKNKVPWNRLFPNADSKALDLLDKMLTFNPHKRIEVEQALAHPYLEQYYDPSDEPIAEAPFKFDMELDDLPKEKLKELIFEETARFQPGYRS
The experiment in a line: Cell-free kinase assay Erk2-ALPHA. Format: biochemical, human. To be noted: 10 μM ATP. On the procedure:
as §4, §5, §6, §7, §8

The nature of series [1]: Cell-free kinase assay Erk2-ALPHA. Format: biochemical, human. Particulars: cell-free kinase assay; MAPK = Erk2, p38alpha, Jnk1+Jnk2 of Table 1. How it is done:
as §4, §5, §6, §7, §8

For the next series, the system named is Hct116. As to the kind of experiment: XTT assay, anti-proliferative activity, Hct116. In kind it is cell-based. Particulars: Homo sapiens, HCT-116; 45 h incubation. In a few lines: as §1
Another series has as its system T3, Jnk1 + Jnk2.
T3 construct: fused on or other part: GST tag or His tag (commercial recombinant fusion proteins from Proqinase or Upstate)
The experiment in a line: Cell-free kinase assay (ALPHA technology) Jnk1 + Jnk2. In kind it is biochemical, human. Particulars: 10 μM ATP. How it is done: as §4, §5, §6, §7, §8

[2] abbreviates: Western blotting, concentrations of 5-50 μM.

As usually defined, the IC50 is the concentration that gives 50% inhibition. What is called EC50 is the concentration that produces a half-maximal response. As a reminder, the inhibition is the percentage by which the read-out fell short of the control. Low values mean a response near the control, high ones a response far below the control. By melting point is commonly meant the temperature of the solid-liquid transition.

As for `Cn1c(=O)n(-c2ccc(C(C)(C)C#N)cc2)c2c3cc(-c4cnc5ccccc5c4)ccc3ncc21` [BEZ-235], in the series on p110alpha H107R, the IC50 was 0.018 µM.
Consider `CCNC(=O)Nc1ccc2ncc(Nc3cccc(O)c3)nc2n1` [Compound 56, 1-Ethyl-3-[3-(3-hydroxy-phenylamino)-pyrido[2,3-b]pyrazin-6-yl]-urea], for which the melting point lay in the range of 270 to 273 °C. In the series with MDA-MB468, this compound came in with a concentration for a half-maximal effect (EC50) of less than 5 µM. The compound also registered an inhibition at 50 µM with Phospho-Akt (Ser 473) (Homo sapiens, at 50 μM, 5 h) of 100%. In the series with Phospho-Akt (Ser 473) (setting [2]), the “inhibition of cellular phospho-Akt / PI3K-Akt pathway, in words” value is reported as “cellular PI3K selectivity”. For the same compound, at PI3Kalpha, the “PI3K inhibition, in words” value is on record as “PI3K inhibition”. Moreover, at p38alpha, the IC50 was less than 10 µM. Also, the inhibition at 50 µM in the series on Phospho-p90RSK (S380) (Homo sapiens, at 50 μM, 5 h) was determined as 0%. For the same compound, in the series on Phospho-p90RSK (S380) (setting [2]), the “inhibition of phospho-Rsk / Raf-Mek-Erk pathway, in words” value is “do not block the Raf-Mek-Erk pathway”. On Erk2, this compound displayed an IC50 of less than 10 µM. For the same compound, the “Erk2 / MAPK inhibition, in words” value in series [1] is recorded as “no or only moderate MAPK inhibition”. In addition, the half-maximal effective concentration (EC50) in the series on Hct116 was less than 10 µM. Besides, the half-inhibitory concentration (IC50) in the series with Jnk1 + Jnk2 is greater than 10 µM.
